Laboratory results reported in ChEMBL document CHEMBL5727601, “Isoquinolones as BTK inhibitors” (2020).

Target: Tyrosine-protein kinase BTK (Homo sapiens, UniProt Q06187)
Assay: Lanthscreen Eu Kinase Binding assay: A Lanthscreen Eu Kinase Binding assay (Life Technologies) was performed to quantitate the ability of test compounds to bind to BTK. The assay is based on the binding and displacement of Alexa Fluor647-labeled Kinase Tracer #236 to the ATP-binding site of human full length His-tagged BTK (Life Technologies cat # PV3587) with TR-FRET detection using a europium-labeled anti-His antibody. The assay was assembled in 384-well low volume NBS black plates (Corning) where 2 nM BTK and test compound in DMSO at varying concentrations were pre-incubated for 30 min at 28° C. in assay buffer consisting of 50 mM HEPES, pH 7.4, 10 mM MgCl2, 1 mM EGTA. 100 μM Na3VO4 and 0.01% Brij 35. Then, 2 nM of Eu-anti His antibody and 30 nM Kinase Tracer were added and incubated for […] at 28° C. Following incubation, TR-FRET signal was read on an Envision plate reader (Excitation: 340 nm; Emissions: 615 and 665 nm). The 665: 615 nm emission ratio was calculated and converted to POC compared to control and blank wells.

Sequence of Tyrosine-protein kinase BTK (Q06187 whole entry): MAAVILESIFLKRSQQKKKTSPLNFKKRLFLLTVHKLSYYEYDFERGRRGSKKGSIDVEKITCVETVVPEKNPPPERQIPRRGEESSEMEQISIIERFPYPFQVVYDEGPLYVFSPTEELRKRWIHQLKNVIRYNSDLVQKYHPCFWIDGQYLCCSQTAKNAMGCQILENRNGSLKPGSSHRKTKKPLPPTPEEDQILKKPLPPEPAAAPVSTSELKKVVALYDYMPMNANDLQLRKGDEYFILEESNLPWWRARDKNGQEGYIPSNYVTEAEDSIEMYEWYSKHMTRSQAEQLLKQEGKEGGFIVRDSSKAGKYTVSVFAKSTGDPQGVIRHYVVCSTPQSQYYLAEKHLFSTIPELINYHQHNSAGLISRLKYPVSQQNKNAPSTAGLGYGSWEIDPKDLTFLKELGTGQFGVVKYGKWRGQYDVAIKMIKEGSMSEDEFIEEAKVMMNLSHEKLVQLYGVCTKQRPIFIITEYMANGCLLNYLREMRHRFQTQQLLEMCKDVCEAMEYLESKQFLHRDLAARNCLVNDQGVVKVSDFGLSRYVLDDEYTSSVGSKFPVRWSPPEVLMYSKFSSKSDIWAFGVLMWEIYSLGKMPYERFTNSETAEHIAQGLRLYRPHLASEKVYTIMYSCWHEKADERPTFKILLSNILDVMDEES

IC50: 900 pM
SMILES: C=CC(=O)N1CC(c2cc3cc(C4CC4)ccc3c(=O)n2-c2cccc(-c3ccnc(N)c3)c2CO)C1
